Measured values reported in US7202270B2, “Convenient stable non-hygroscopic crystalline solid forms of racemic and chiral LA-plus salts: process for their manufacture and uses” (priority 2003, dated 2007).
Counter-ions that a name gives are not always drawn.

Key:
[1] = Hygroscopicity of the solid salt; type: physicochemical; details: solid salt form
Solubility data = type: physicochemical; details: Results in gm/dl; 35 to 40° C.
Experimental: Results in gm/dl; tests were done at 35 to 40° C. temperature.

[2] = Antioxidant assay by DPPH radical scavenging activity; type: biochemical
Tyrosinase = assay: Activity on Tyrosinase (inhibition); type: biochemical
Excerpt: Tyrosinase inhibition is one of the established in vitro methods of evaluating the skin fairness property.

Collagenase = Collagenase inhibition; type: biochemical
Elastase = Elastase inhibition; type: biochemical
Propionibacterium acnes = assay: Inhibition of P. acnes (zone of inhibition); type: cell-based; details: for Zone of inhibition: P. acnes
[3] = Exposure to sun light for 5 minutes, Conc. 55 μg
[4] = Absence of sun light, Conc. 6.6 mg

Structure (SMILES)	melting point [°C]	Solubility, ETHANOL (95%) (Solubility data) [%]	Solubility, PROPYLENE GLYCOL (Solubility data) [%]	Solubility, WATER (D. D.) (Solubility data) [%]	% Scavenging (DPPH) [2, 3] [%]	Tyrosinase % Inhibition (Tyrosinase; Conc. 120 μg) [%]	IC50 for Collagenase (Collagenase) [µg/mL]	IC50 for Elastase (Elastase) [µg/mL]	Minimum concentration showing inhibition of P. acnes (Propionibacterium acnes) [%]	Zone of inhibition (Propionibacterium acnes; Conc. of the sample 0.5%) [mm]	Zone of inhibition (Propionibacterium acnes; Conc. of the sample 1%) [mm]	Zone of inhibition (Propionibacterium acnes; Conc. of the sample 2%) [mm]	Zone of inhibition (Propionibacterium acnes; Conc. of the sample 5%) [mm]	Zone of inhibition (Propionibacterium acnes; Conc. of the sample 10%) [mm]	also measured
CN(C)CCNC(=O)CCCCC1CCSS1 (racemic) (as salt: maleate) [LA Plus maleate, (±)-Maleate salt of N-[2-(dimethylamino)ethyl]-1,2-dithiolane-3-pentanamide]	125 to 127														
CN(C)CCNC(=O)CCCCC1CCSS1.Cl (racemic) [(±)-LA-Plus hydrochloride, N-[2-(dimethylamino)ethyl]-1,2-dithiolane-3-pentanamide monohydrochloride]															Hygroscopicity [1]: hygroscopic
CN(C)CCNC(=O)CCCCC1CCSS1.O=C(O)/C=C/C(=O)O (racemic) [LA Plus fumarate, (±)-Fumarate salt of N-[2-(dimethylamino)ethyl]-1,2-dithiolane-3-pentanamide]	76 to 78	51	23	100	50	53	1600	1400	2	0	0	7	8	10	% Scavenging (DPPH) ([2]; Absence of sun light, Conc. 6.2 mg): 57%
CN(C)CCNC(=O)CCCCC1CCSS1 (racemic) [LA Plus maleate, (±)-Maleate salt of N-[2-(dimethylamino)ethyl]-1,2-dithiolane-3-pentanamide]		7.35	13	60	53	58	1600	1400	1.0	0	7	8	9	11	% Scavenging (DPPH) [2, 4]: 54%
O=C(O)CCCCC1CCSS1 (racemic) [α-Lipoic acid, Alpha Lipoic acid, reference compound]							1600	1400	5	0	0	0	7	8	% Scavenging (DPPH) ([2]; Absence of sun light, Conc. 6 mg): 50%; % Scavenging (DPPH) ([2]; Exposure to sun light for 5 minutes, Conc. 45 μg): 50%; Tyrosinase % Inhibition (Tyrosinase; Conc. 100 μg): 51%
O=C1O[C@H]([C@@H](O)CO)C(O)=C1O [Ascorbic acid, reference compound]															% Scavenging (DPPH) ([2]; Absence of sun light, Conc. 6 μg): 71%; % Scavenging (DPPH) ([2]; Exposure to sun light for 5 minutes, Conc. 6 μg): 59%
CCC[C@@H]1C[C@@H](C(=O)N[C@@H]([C@H]2O[C@H](SC)[C@H](O)[C@@H](O)[C@H]2O)[C@H](C)Cl)N(C)C1 [Clindamycin, reference compound]										0	7	9	15	20	
CN(C)CCNC(=O)CCCCC1CCSS1.O=C(O)/C=C\C(=O)O (stereo not drawn) [R(+)LA Plus maleate, R-(+)-Maleate salt of N-[2-(dimethylamino)ethyl]-1,2-dithiolane-3-pentanamide]	125 to 127	6.84	10	60	47	58.6	1600	1400	1.0	0	8	10	12	15	% Scavenging (DPPH) [2, 4]: 49%
